What was measured:
[1] = Antiproliferative activity against HEK293 cells assessed as cell viability at 10^-4 M after 6 hrs by MTT assay relative to control; assay type: cell-based; conditions: human, read-out: Activity
MCF7 = experiment: Antiproliferative activity against human MCF7 cells assessed as cell viability at 10^-4 M after 6 hrs by MTT assay relative to control; assay type: functional; conditions: MCF7, 6 h, read-out: Activity
Aromatase = target: T1, Aromatase (Homo sapiens, UniProt P11511)
T1 sequence (P11511 whole entry): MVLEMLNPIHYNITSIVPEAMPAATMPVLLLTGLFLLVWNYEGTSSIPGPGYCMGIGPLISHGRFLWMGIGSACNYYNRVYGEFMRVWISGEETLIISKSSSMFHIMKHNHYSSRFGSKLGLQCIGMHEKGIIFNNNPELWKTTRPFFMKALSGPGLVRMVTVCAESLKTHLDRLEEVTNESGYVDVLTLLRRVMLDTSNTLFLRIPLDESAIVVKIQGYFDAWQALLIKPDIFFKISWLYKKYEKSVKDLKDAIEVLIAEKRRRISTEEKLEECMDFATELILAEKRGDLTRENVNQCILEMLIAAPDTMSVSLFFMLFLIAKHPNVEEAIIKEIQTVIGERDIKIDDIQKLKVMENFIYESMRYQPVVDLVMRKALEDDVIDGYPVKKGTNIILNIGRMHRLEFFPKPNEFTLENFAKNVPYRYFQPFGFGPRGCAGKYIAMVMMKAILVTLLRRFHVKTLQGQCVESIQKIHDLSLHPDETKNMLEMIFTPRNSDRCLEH
Description: Inhibition of aromatase (unknown origin)

Compound `COc1ccc(O)c(-c2csc(-c3ncccn3)n2)c1` has a viability at 6 h, 100 µM [1] of 81.3% and a viability at 100 µM (MCF7) of 208%.

With `c1cnc(-c2nc(-c3ccncc3)cs2)nc1` the viability at 6 h, 100 µM [1] was 101% and the viability at 100 µM (MCF7) was 76.6%.

For `c1cnc(-c2nc(-c3cc4ccccc4s3)cs2)nc1`, the viability at 6 h, 100 µM [1] was 83.5% and the viability at 100 µM (MCF7) was 120%.

`Clc1cccc(-c2csc(-c3ncccn3)n2)c1` gave a viability at 6 h, 100 µM [1] of 107% and a viability at 100 µM (MCF7) of 86.9%.

`Oc1ccccc1-c1csc(-c2ncccn2)n1` gave a viability at 6 h, 100 µM [1] of 131% and a viability at 100 µM (MCF7) of 129%.

Work on `c1cncc(-c2nsc(-c3cccnc3)n2)c1` yielded an IC50 (Aromatase) of 240 nM.

`c1ccc(-c2csc(-c3ncccn3)n2)nc1` showed a viability at 6 h, 100 µM [1] of 101% and a viability at 100 µM (MCF7) of 74.2%.

With `Oc1cccc(-c2csc(-c3ncccn3)n2)c1` the viability at 6 h, 100 µM [1] was 113% and the viability at 100 µM (MCF7) was 112%.

In the case of `c1cnc(-c2nc(-c3cc4ccccc4o3)cs2)nc1`, the viability at 6 h, 100 µM [1] is reported as 108% and the viability at 100 µM (MCF7) is reported as 131%.

For `Clc1ccc(-c2csc(-c3ncccn3)n2)cc1`, the viability at 6 h, 100 µM [1] was 101% and the viability at 100 µM (MCF7) was 146%.

`Oc1ccc(-c2csc(-c3ncccn3)n2)cc1` showed a viability at 6 h, 100 µM [1] of 94% and a viability at 100 µM (MCF7) of 227%.

In the case of `c1cncc(-c2csc(-c3cccnc3)n2)c1`, the IC50 (Aromatase) is reported as 4 nM.

`Cn1c(-c2csc(-c3ncccn3)n2)nc2ccccc21` gave a viability at 6 h, 100 µM [1] of 102% and a viability at 100 µM (MCF7) of 128%.

In the case of `c1cnc(-c2nc(-c3nc4ccccc4s3)cs2)nc1`, the viability at 6 h, 100 µM [1] is reported as 117% and the viability at 100 µM (MCF7) is reported as 60.7%.

Work on `COc1ccc(-c2csc(-c3ncccn3)n2)cc1` yielded a viability at 6 h, 100 µM [1] of 101% and a viability at 100 µM (MCF7) of 127%.

With `Oc1ccc(Cl)cc1-c1csc(-c2ncccn2)n1` the viability at 6 h, 100 µM [1] was 78% and the viability at 100 µM (MCF7) was 162%.

`c1cnc(-c2nc(-c3cccnc3)cs2)nc1` showed a viability at 6 h, 100 µM [1] of 89% and a viability at 100 µM (MCF7) of 75.5%.

Compound `COc1ccccc1-c1csc(-c2ncccn2)n1` has a viability at 6 h, 100 µM [1] of 87% and a viability at 100 µM (MCF7) of 130%.

`c1ccc(-c2nsc(-c3ccccc3)n2)cc1` showed an IC50 (Aromatase) of over 50000 nM.

`c1cnc(-c2nc(-c3ccco3)cs2)nc1` showed a viability at 6 h, 100 µM [1] of 59% and a viability at 100 µM (MCF7) of 76%.

`c1cnc(-c2nc(-c3cccs3)cs2)nc1` gave a viability at 6 h, 100 µM [1] of 77% and a viability at 100 µM (MCF7) of 136%.

Work on `Cc1ccc(O)c(-c2csc(-c3ncccn3)n2)c1` yielded a viability at 6 h, 100 µM [1] of 91.8% and a viability at 100 µM (MCF7) of 195%.

`Clc1ccccc1-c1csc(-c2ncccn2)n1` gave a viability at 6 h, 100 µM [1] of 89.4% and a viability at 100 µM (MCF7) of 125%.

For `COc1cccc(-c2csc(-c3ncccn3)n2)c1`, the viability at 6 h, 100 µM [1] was 95% and the viability at 100 µM (MCF7) was 137%.

Reference: ChEMBL document CHEMBL4219133, “Studies on non-steroidal inhibitors of aromatase enzyme; 4-(aryl/heteroaryl)-2-(pyrimidin-2-yl)thiazole derivatives” (Bioorg Med Chem, 2018)
